Measured values taken from patent US20250263404A1, “AMINOPYRIDINES AS ACTIVATORS OF PI3 KINASE” (UCL Business Ltd, priority 2021, published 2025).

Key:
[1] = target: T1, PI3Kδ (Homo sapiens, UniProt O00329); test: ADP-Glo in vitro lipid kinase assay, PI3Kδ; assay type: biochemical
T1 construct: Full-length p110β/p85α and p110δ/p85α were cloned and expressed in a similar manner; Strep-tag followed by TEV protease site (N, cleaved yes); made in house; host or cells: Spodoptera frugiperda Sf9 (plasmids OP833 and OP809)
Description: The effect of 1938 on the in vitro lipid kinase activity of p85α in complex with p110α, p110β or p110δ (further referred to as PI3Kα, PI3Kβ and PI3Kδ) was tested. As a positive control, a bis-phosphorylated phosphopeptide (a PDGF-receptor-derived peptide phosphorylated on Tyr-740 and Tyr-751, hereafter referred to as pY peptide) was used to mimic engagement of the p85α SH2 domains with tyrosine-phosphorylated peptides in membrane-bound receptors and adaptor proteins, known to activate the PI3Kα complex.
Kinase reactions were performed with ADP-Glo kinase assay kit (Promega Corporation). The enzyme, substrate and compounds were diluted in reaction buffer (20 mM HEPES, 50 mM NaCl, 50 mM KCl, 3 mM MgCl2, 1 mM EGTA, 1 mM TCEP, pH 7.4). Final concentrations of PI3Kα and PI3Kδ used were 25 nM and 50 nM for PI3Kβ. […]
For compound profiling, the reaction mixture contained 2 μl PI3K enzyme, 2 μl compound and/or pY and 2 μl of liposome substrate mixed with ATP. […] Luminescence was read using a Sense (Hidex) plate reader. […]
For characterisation of the effects of 1938 on in vitro PI3K enzymology, all reactions were performed at room temperature with 384 white-polystyrene plates (Corning #3574). […] For enzyme kinetic calculations, data was expressed as velocity (pmol of ADP generated/sec). […]

[2] = tested on: PIP3 levels in A549 cells; test: PIP3 measurement by mass spectrometry in A549 cells; assay type: cell-based, human; conditions: 2 min
Description: FIG. 21. a, MEFs were stimulated for the indicated time points with 1938 (5 μM) or for 2 min with PDGF (20 ng/ml) or insulin (100 nM), followed by lipid extraction and PIP3 measurement by mass spectrometry. b, MEFs were stimulated for 2 min with increasing doses of 1938 or PDGF, followed by lipid extraction and PIP3 measurement by mass spectrometry. c, A549 cells were stimulated for 2 min with increasing doses of 1938 or insulin, or 10 ng/ml PDGF, followed by lipid extraction and PIP3 measurement by mass spectrometry. […] These maximal 1938-induced PIP3 levels are below those required to give rise to sufficient PI(3,4)P2 to be detectable by mass spectrometry, a conclusion also supported by the observation that substantial levels of PIP3 induced by lower doses of PDGF (e.g. 0.5 ng/ml) were also not sufficient to give rise to levels of PI(3,4)P2 detectable by mass. […] A strong PIP3 response was also observed with insulin in these cells, with no PIP3 induced by PDGF, in line with the absence of this receptor in epithelial cells, including in A549.

T1 sequence (O00329 whole entry, species assumed): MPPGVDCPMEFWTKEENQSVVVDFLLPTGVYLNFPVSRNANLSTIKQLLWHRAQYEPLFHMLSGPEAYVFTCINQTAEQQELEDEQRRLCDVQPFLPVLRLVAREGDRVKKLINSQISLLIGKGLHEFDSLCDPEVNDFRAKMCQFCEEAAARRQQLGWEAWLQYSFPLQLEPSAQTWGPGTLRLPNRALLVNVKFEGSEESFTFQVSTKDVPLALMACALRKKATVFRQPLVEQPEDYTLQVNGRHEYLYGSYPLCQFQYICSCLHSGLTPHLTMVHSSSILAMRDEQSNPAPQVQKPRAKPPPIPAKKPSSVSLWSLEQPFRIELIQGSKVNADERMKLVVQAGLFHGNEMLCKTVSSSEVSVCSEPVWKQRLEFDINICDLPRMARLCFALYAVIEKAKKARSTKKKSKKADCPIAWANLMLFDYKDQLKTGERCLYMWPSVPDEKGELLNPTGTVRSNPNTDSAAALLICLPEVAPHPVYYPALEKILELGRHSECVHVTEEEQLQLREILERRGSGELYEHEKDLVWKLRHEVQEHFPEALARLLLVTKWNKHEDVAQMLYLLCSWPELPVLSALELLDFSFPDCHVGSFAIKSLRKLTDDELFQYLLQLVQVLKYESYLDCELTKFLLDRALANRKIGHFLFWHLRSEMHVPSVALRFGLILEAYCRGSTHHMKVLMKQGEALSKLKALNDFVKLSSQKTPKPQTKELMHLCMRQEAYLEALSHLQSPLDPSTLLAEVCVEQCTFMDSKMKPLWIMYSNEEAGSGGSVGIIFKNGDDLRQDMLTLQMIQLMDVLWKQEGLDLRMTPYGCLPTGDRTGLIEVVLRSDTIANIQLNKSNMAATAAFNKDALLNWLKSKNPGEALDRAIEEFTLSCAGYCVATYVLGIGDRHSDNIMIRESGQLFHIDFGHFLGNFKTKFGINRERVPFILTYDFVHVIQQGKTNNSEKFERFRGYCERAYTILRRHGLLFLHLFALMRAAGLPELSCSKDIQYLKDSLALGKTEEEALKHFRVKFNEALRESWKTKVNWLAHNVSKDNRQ
T1 sequence (P27986 whole entry partner, species assumed): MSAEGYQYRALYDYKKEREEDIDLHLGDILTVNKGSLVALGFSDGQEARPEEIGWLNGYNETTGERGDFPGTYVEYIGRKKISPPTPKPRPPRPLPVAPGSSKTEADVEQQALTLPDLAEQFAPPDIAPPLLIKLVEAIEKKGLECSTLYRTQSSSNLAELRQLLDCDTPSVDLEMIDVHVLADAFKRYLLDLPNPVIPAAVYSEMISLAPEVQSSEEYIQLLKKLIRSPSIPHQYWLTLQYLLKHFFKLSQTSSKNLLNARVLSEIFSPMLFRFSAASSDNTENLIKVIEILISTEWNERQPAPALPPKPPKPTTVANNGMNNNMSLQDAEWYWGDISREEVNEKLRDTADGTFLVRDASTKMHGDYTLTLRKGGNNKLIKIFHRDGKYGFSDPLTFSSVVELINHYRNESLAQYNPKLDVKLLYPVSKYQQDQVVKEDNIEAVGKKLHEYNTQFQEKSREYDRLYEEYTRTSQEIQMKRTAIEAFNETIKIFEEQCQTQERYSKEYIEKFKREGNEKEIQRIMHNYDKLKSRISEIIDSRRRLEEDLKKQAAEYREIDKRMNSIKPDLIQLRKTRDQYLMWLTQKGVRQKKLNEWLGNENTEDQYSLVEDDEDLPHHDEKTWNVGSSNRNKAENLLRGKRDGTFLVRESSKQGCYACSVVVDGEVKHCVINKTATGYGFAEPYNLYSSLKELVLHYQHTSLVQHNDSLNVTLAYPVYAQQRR

effect on in vitro lipid kinase activity of PI3Kδ [1]: not PI3Kβ or PI3Kδ
SMILES: CCN1CCN(c2ccc(Nc3cc(Nc4cccc5c4N(C(C)=O)CC5)ccn3)cc2)CC1 [Example 1938]
concentration at which PIP3 response maxed out [2]: 10 µM
